This passage reports Ki and IC50 results from patent US11298363B2, “Triazolobenzazepines as vasopressin V1a receptor antagonists” (RICHTER GEDEON NYRT., priority 2017, dated 2022).

Where a name gives a salt, the structure may show the parent alone.

The target of assay [1] is T1, human vasopressin V1a receptor (Homo sapiens, UniProt P37288). The experiment in a line: Human vasopressin V1a receptor binding assay. The following applies: 1321N1 cell membranes, [3H]vasopressin; read-out: Ki (nM) on hV1a cell line. Here is the method: Human Vasopressin V1a Receptor Binding Assay
T1 sequence (P37288 whole entry): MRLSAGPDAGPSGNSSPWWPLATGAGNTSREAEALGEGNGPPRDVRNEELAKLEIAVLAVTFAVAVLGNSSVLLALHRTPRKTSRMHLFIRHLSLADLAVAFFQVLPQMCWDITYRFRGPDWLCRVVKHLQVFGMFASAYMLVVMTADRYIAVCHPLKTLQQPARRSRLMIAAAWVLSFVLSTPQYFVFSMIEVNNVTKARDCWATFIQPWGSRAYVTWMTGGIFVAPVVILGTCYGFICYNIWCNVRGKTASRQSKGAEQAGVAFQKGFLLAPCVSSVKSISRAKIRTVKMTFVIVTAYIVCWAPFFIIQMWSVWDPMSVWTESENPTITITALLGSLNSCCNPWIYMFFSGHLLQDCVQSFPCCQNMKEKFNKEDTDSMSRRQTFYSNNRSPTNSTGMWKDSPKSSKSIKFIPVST
Cells were suspended in preparative buffer (50 mM Tris, 1 mM EDTA, 0.1 mM PMSF) and homogenized with glass homogenizing potter. To separate the raw membrane fraction two consecutive centrifugation procedures (40,000 g for 20 minutes at 4° C.) were executed, then the membrane was taken into the preparatory buffer during a final washing step, it was divided into aliquots which were stored at −80° C. until the time of measurement.
To determine the final affinity value, the results of at least two independent experiments were taken into account.
Non-specific binding values were determined in the presence of unlabeled 1.2×10^−6 M (Arg^8)-vasopressin. Samples were incubated in a total volume of 0.33 ml for 60 minutes at 27° C. Membrane-bound and free ligands were separated by filtration through a 0.5% polyethyleneimine-impregnated UniFilter® GF/B™. After drying the filter plates, 40 μl Microscint-20 (Packard) scintillation cocktail was added to the samples. Finally, radioactivity was measured using MicroBeta^2 Microplate Counter (Perkin Elmer).
During fitting, the asymptotes are not fixed. The K values (inhibition constant) are given with Cheng-Prusoff equation Ki=IC50/[1+(L/KD)] wherein [L] is the radioligand concentration used in the experiment and [KD] is the affinity of the radioactively labelled ligand for the given receptor. The KD is determined beforehand using the Scatchard curve.

The target in assay [2] is T1, human vasopressin V1a receptor. The experiment in a line: Functional assay on human vasopressin V1a receptor expressing cell line (intracellular Ca2+ fluorescence). Format: cell-based. The following applies: 1321N1 cells, (Arg8)-vasopressin at EC80; read-out: IC50 (nM) on hV1a cell line. Here is the method:
Functional Assay to Test Compounds on Human Vasopressin V1a Receptor Expressing Cell Line
The ordinary secondary messenger pathway of the measured GPCR receptor was used, the endogenous Gq-associated system.
Using 30,000 cells/plate, compounds were measured on 96-well plates. The buffer composition of the measurements was the following (expressed in mM): 140 NaCl, 5 KCl, 2 CaCl2), 2 MgCl2, 10 glucose, 10 HEPES (4-(2-hydroxyethyl)-1-piperazine-ethanesulfonic acid), 2 probenecid, pH=7.4. FLIPR Calcium 5 kit (Molecular Devices) was used as fluorescent dye, the medium was not removed prior to filling with the dye and the cells were not washed out either before or after. The incubation was performed at room temperature, the final concentration of DMSO was 1%. The materials to be measured were administered in 15 to 20 minutes pretreatment, at least two parallels of each compound in each concentration was measured.
Fluorescence signal was used to determine the intracellular Ca^2+ level, the reader was FlexStation II96. […] The fluorescence signal was logged in every 1.4 seconds for 1 minute. The reference compounds used were the following: (Arg^8)-vasopressin as agonist at concentration of EC80, determined for each plate, and relcovaptan as antagonist at 1 μM. The % of inhibition at each concentration and the IC50 value of the compounds were determined where a concentration line was also measured.
The total AVP concentration-response curve was recorded on each plate. The effect of compounds measured was expressed by percentage of relative inhibition compared to control response. […] The average IC50 values were calculated from at least three independent measurements in all cases.

As for `COc1ccc2c(c1)CC(N)Cc1nnc([C@H]3CC[C@H](Oc4ccccn4)CC3)n1-2` (stereo partly drawn) [Example 31, 8-methoxy-1-[trans-4-(pyridin-2-yloxy)cyclohexyl]-5,6-dihydro-4H-[1,2,4]triazolo[4,3-a][1]benzazepine-5-amine hydrochloride], the Ki (as a rule, a measure of affinity in units of concentration, obtained from inhibition or displacement) in assay [1] amounted to 17 nM. In assay [2], the IC50 (as a rule, the concentration that inhibits the measured activity by half) came to 260 nM.
`COc1ccc2c(c1)CC(NC(C)C)Cc1nnc([C@H]3CC[C@H](Oc4ccccn4)CC3)n1-2` (stereo partly drawn) [Example 32, 8-methoxy-N-(propan-2-yl)-1-[trans-4-(pyridin-2-yloxy)cyclohexyl]-5,6-dihydro-4H-[1,2,4]triazolo[4,3-a][1]benzazepine-5-amine]: the Ki in assay [1] worked out at 6 nM. Besides, in assay [2], the IC50 was found to be 85 nM.
The corresponding values for `CC(C)(C)OC(=O)NC1Cc2cc(C(F)(F)F)ccc2-n2c(nnc2[C@H]2CC[C@H](Oc3ccccn3)CC2)C1` (stereo partly drawn) [Example 33, Tert-butyl {1-[trans-4-(pyridin-2-yloxy)cyclohexyl]-8-(trifluoromethyl)-5,6-dihydro-4H-[1,2,4]triazolo[4,3-a][1]benzazepin-5-yl}carbamate] are 111 nM and 480 nM.
Take `NC1Cc2cc(C(F)(F)F)ccc2-n2c(nnc2[C@H]2CC[C@H](Oc3ccccn3)CC2)C1` (stereo partly drawn) [Example 34, 1-[trans-4-(pyridin-2-yloxy)cyclohexyl]-8-(trifluoromethyl)-5,6-dihydro-4H-[1,2,4]triazolo[4,3-a][1]benzazepine-5-amine hydrochloride]: in assay [1], the Ki was found to be 52 nM. Moreover, the IC50 in assay [2] was determined as 700 nM.
`CN(C)C1Cc2cc(C(F)(F)F)ccc2-n2c(nnc2[C@H]2CC[C@H](Oc3ccccn3)CC2)C1` (stereo partly drawn) [Example 35, N,N-dimethyl-1-[trans-4-(pyridin-2-yloxy)cyclohexyl]-8-(trifluoromethyl)-5,6-dihydro-4H-[1,2,4]triazolo[4,3-a][1]benzazepine-5-amine]: in assay [1], the Ki is 9.7 nM. Moreover, the IC50 in assay [2] amounted to 160 nM.
As to `CC(C)NC1Cc2cc(C(F)(F)F)ccc2-n2c(nnc2[C@H]2CC[C@H](Oc3ccccn3)CC2)C1` (stereo partly drawn) [Example 36, N-(propan-2-yl)-1-[trans-4-(pyridin-2-yloxy)cyclohexyl]-8-(trifluoromethyl)-5,6-dihydro-4H-[1,2,4]triazolo[4,3-a][1]benzazepine-5-amine], the Ki in assay [1] stood at 36 nM. In assay [2], the IC50 is 610 nM.
On to `Cc1ccc2c(c1)CC(N)Cc1nnc([C@H]3CC[C@H](Oc4ccccn4)CC3)n1-2` (stereo partly drawn) [Example 37, 8-methyl-1-[trans-4-(pyridin-2-yloxy)cyclohexyl]-5,6-dihydro-4H-[1,2,4]triazolo[4,3-a][1]benzazepine-5-amine], for which the Ki in assay [1] was found to be 7 nM. For the same compound, the IC50 in assay [2] stood at 100 nM.
As for `Cc1ccc2c(c1)CC(NC(C)C)Cc1nnc([C@H]3CC[C@H](Oc4ccccn4)CC3)n1-2` (stereo partly drawn) [Example 38, 8-methyl-N-(propan-2yl)-1-[trans-4-(pyridin-2-yloxy)cyclohexyl]-5,6-dihydro-4H-[1,2,4]triazolo[4,3-a][1]benzazepine-5-amine], the Ki in assay [1] came out at 2 nM. For the same compound, the IC50 in assay [2] is 30 nM.
For the compound `NC1Cc2cc(Br)ccc2-n2c(nnc2[C@H]2CC[C@H](Oc3ccccn3)CC2)C1` (stereo partly drawn) [Example 39, 8-bromo-1-[trans-4-(pyridin-2-yloxy)cyclohexyl]-5,6-dihydro-4H-[1,2,4]triazolo[4,3-a][1]benzazepine-5-amine], the Ki in assay [1] amounted to 1.4 nM. Also, the IC50 in assay [2] was determined as 8.3 nM.
As to `CC(C)NC1Cc2cc(Br)ccc2-n2c(nnc2[C@H]2CC[C@H](Oc3ccccn3)CC2)C1` (stereo partly drawn) [Example 40, 8-bromo-N-(propan-2-yl)-1-[trans-4-(pyridin-2-yloxy)cyclohexyl]-5,6-dihydro-4H-[1,2,4]triazolo[4,3-a][1]benzazepine-5-amine], the Ki in assay [1] was 0.9 nM. In assay [2], the IC50 was 8.4 nM.
On the same counts, the results for `NC1Cc2cc(Cl)ccc2-n2c(nnc2[C@H]2CC[C@H](C(F)(F)F)CC2)C1` (stereo partly shown) [Example 43] are 88 nM and 210 nM.
For `CC(C)NC1Cc2cc(Cl)ccc2-n2c(nnc2[C@H]2CC[C@H](C(F)(F)F)CC2)C1` (stereo partly drawn) [Example 44, 8-chloro-N-(propan-2-yl)-1-[trans-4-(trifluoromethyl)cyclohexyl]-5,6-dihydro-4H-[1,2,4]triazolo[4,3-a][1]benzazepine-5-amine], the Ki in assay [1] is 26 nM. For the same compound, the IC50 in assay [2] was determined as 480 nM.
For the compound `NC1Cc2cc(Br)ccc2-n2c(nnc2[C@H]2CC[C@H](C(F)(F)F)CC2)C1` (stereo partly drawn) [Example 45, 8-bromo-1-[trans-4-(trifluoromethyl)cyclohexyl]-5,6-dihydro-4H-[1,2,4]triazolo[4,3-a][1]benzazepine-5-amine], in assay [1], the Ki was 38 nM. The IC50 in assay [2] came out at 870 nM.
Consider `CC(C)NC1Cc2cc(Br)ccc2-n2c(nnc2[C@H]2CC[C@H](C(F)(F)F)CC2)C1` (stereo partly drawn) [Example 46, 8-bromo-N-(propan-2-yl)-1-[trans-4-(trifluoromethyl)cyclohexyl]-5,6-dihydro-4H-[1,2,4]triazolo[4,3-a][1]benzazepine-5-amine], for which, in assay [1], the Ki came out at 23 nM. The IC50 in assay [2] is 410 nM.
For the compound `O=C1Cc2cc(C(F)(F)F)ccc2-n2c(nnc2[C@H]2CC[C@H](Oc3ccccn3)CC2)C1` [Example 48, 1-[trans-4-(pyridin-2-yloxy)cyclohexyl]-8-(trifluoromethyl)-4H-[1,2,4]triazolo[4,3-a][1]benzazepin-5(6H)-one], the Ki in assay [1] worked out at 18 nM. In addition, the IC50 in assay [2] worked out at 340 nM.
Consider `OC1Cc2cc(C(F)(F)F)ccc2-n2c(nnc2[C@H]2CC[C@H](Oc3ccccn3)CC2)C1` (stereo partly drawn) [Example 49, 1-[trans-4-(pyridin-2-yloxy)cyclohexyl]-8-(trifluoromethyl)-5,6-dihydro-4H-[1,2,4]triazolo[4,3-a][1]benzazepin-5-ol], for which the inhibition constant (Ki) in assay [1] worked out at 7.5 nM. Besides, the IC50 in assay [2] stood at 140 nM.
For the compound `COC1Cc2cc(C(F)(F)F)ccc2-n2c(nnc2[C@H]2CC[C@H](Oc3ccccn3)CC2)C1` (stereo partly drawn) [Example 50, 5-methoxy-1-[trans-4-(pyridin-2-yloxy)cyclohexyl]-8-(trifluoromethyl)-5,6-dihydro-4H-[1,2,4]triazolo[4,3-a][1]benzazepine], the Ki in assay [1] worked out at 2.7 nM. Further, in assay [2], the IC50 worked out at 20 nM.
The corresponding values for `FC(F)(F)c1ccc2c(c1)CC(OCC1CC1)Cc1nnc([C@H]3CC[C@H](Oc4ccccn4)CC3)n1-2` (stereo partly drawn) [Example 51, 5-(cyclopropylmethoxy)-1-[trans-4-(pyridin-2-yloxy)cyclohexyl]-8-(trifluoromethyl)-5,6-dihydro-4H-[1,2,4]triazolo[4,3-a][1]benzazepine] are 7.6 nM and 55 nM.
In the case of `CC(C)(C)[Si](C)(C)OC1Cc2cc(Cl)ccc2-n2c(nnc2[C@H]2CC[C@H](Oc3ccccn3)CC2)C1` (stereo partly drawn) [Example 52, 5-{[tert-butyl(dimethyl)silyl]oxy}-8-chloro-1-[trans-4-(pyridin-2-yloxy)cyclohexyl]-5,6-dihydro-4H-[1,2,4]triazolo[4,3-a][1]benzazepine], the inhibitory constant (Ki) in assay [1] is 11 nM. Moreover, the half-maximal inhibitory concentration (IC50) in assay [2] is 60 nM.
`Clc1ccc2c(c1)CC(OCC1CC1)Cc1nnc([C@H]3CC[C@H](Oc4ccccn4)CC3)n1-2` (stereo partly drawn) [Example 59, 5-(Cyclopropylmethoxy)-8-chloro-1-[trans-4-(pyridin-2-yloxy)cyclohexyl]-5,6-dihydro-4H-[1,2,4]triazolo[4,3-a][1]benzazepine]: the Ki in assay [1] was 0.8 nM. Also, the IC50 in assay [2] was found to be 2.5 nM.
Take `O=C1Cc2cc(Br)ccc2-n2c(nnc2[C@H]2CC[C@H](Oc3ccccn3)CC2)C1` [Example 64]: the Ki in assay [1] was 0.5 nM. Moreover, the IC50 in assay [2] came to 1.1 nM.
The corresponding values for `OC1Cc2cc(Br)ccc2-n2c(nnc2[C@H]2CC[C@H](Oc3ccccn3)CC2)C1` (stereo partly drawn) [Example 65, 8-bromo-1-[trans-4-(pyridin-2-yloxy)cyclohexyl]-5,6-dihydro-4H-[1,2,4]triazolo[4,3-a][1]benzazepin-5-ol] are 0.5 nM and 1 nM.
In the case of `CN(C)[C@H]1Cc2cc(Cl)ccc2-n2c(nnc2[C@H]2CC[C@H](Oc3ccccn3)CC2)C1` [Example 67], in assay [1], the Ki came to 0.6 nM. Moreover, the IC50 in assay [2] amounted to 2.3 nM.
